From paper PMC11239830, “Synthetic macrolides overcoming MLSBK-resistant pathogens” (Cell Discovery, 2024) come the findings set out here.

The test system of one data set is S. pneumoniae. Nature of the data set: MIC, broth microdilution. The format is cell-based, Streptococcus pneumoniae. The procedure, abridged:
(§1)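 Read-out is the lowest concentration without observed growth after 16–20 h at 37 °C, using the CLSI broth microdilution method.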
(Broth dilution looks for growth in wells or tubes with falling amounts of substance.)

The test system of another data set is M. catarrhalis. Nature of the data set: MIC, broth microdilution. The format is cell-based, Moraxella catarrhalis. Particulars: M. catarrhalis 13L332, Ery-S. As to the method: MICs were determined by the microdilution method according to the Clinical and Laboratory Standards Institute guidelines. Briefly, the stock solution of compounds and the reference antibiotics were diluted 2-fold in sterile 96-well plates with cation-adjusted Mueller-Hinton broth, and mixed with CAMHB-containing bacteria to give a final inoculum of 5 × 10^5 CFU/mL for broth microdilution experiments. […] Finally, the 96-well plates were incubated at 37 °C for 16–20 h to observe and record the results. The lowest concentration at which no bacterial growth could be observed visually was identified as the MICs of the compounds. The assay for MICs was replicated at least three times.

The test system of another data set is H. influenzae. Nature of the data set: MIC, broth microdilution. The format is cell-based, Haemophilus influenzae. In short, it runs like this:
as §1

Another data set relates to S. pyogenes. The data set can be described thus: MIC, broth microdilution. The format is cell-based, Streptococcus pyogenes. The procedure, abridged: as §1
A short description of data set [1]: In vivo pharmacokinetic study. Also noted: species or system SD rats. The note with it: SD (Sprague-Dawley), rat, iv, plasma. The protocol:
The SD rats were fasted overnight and dosed i.v. at a dose of 5 mg/kg in a solution of DMSO/PEG 400/water (5%/24%/71%). The whole blood was collected into tubes containing sodium heparin at 0.083 h, 0.25 h, 0.5 h, 1 h, 2 h, 4 h, 8 h and 24 h after dosing. After centrifugation of 6000 rpm for 10 min at 4 °C, plasma samples were transferred into 1.5 mL tubes and stored at –20 °C. Prior to analysis, the samples were thawed on ice. An amount of 50 μL of each plasma sample was added to a mixture of 50 μL of propranolol (300 ng/mL) and 100 μL of acetonitrile and centrifuged at 12,000 rpm at 4 °C for 10 min. The supernatant was diluted and analyzed by LC-MS/MS. The liquid chromatography was conducted on a Thermo Scientific Q Exactive HF-X (ThermoFisher Scientific, USA) instrument, employing an ACQUITY UPLC BEH C18 Column with dimensions of 130 Å, 1.7 µm, 2.1 mm × 100 mm. The liquid phase method employed gradient elution with mobile phases consisting of acetonitrile and an 0.1% aqueous formic acid solution. Mass spectrometry was conducted in positive ion mode. The quantification of drug concentration in plasma samples was performed using the internal standard method, and the obtained pharmacokinetic parameters were calculated using Phoenix WinNonlin software.

For the next data set, the system named is S. aureus. Nature of the data set: MIC, broth microdilution. The format is cell-based, Staphylococcus aureus. The procedure, abridged:
as §1

Where [2] appears, read: S. pneumoniae 05O173, c-ermB, mef.
Setting [3] is: Streptococcus pneumoniae, ATCC49619, S. pneumoniae ATCC49619, Ery-S, read-out: MIC.
The mark [4] stands for this setting: Streptococcus pneumoniae, S. pneumoniae 05O173, c-ermB, mef, read-out: MIC.
The mark [5] stands for this setting: Streptococcus pneumoniae, S. pneumoniae 07P390, c-ermB, read-out: MIC.
The mark [6] stands for this setting: Moraxella catarrhalis, read-out: MIC.
The mark [7] stands for this setting: Haemophilus influenzae, ATCC49247, H. influenzae ATCC49247, Azi-S, read-out: MIC.
Setting [8] is: Streptococcus pyogenes, S. pyogenes 12-206, c-ermTR, read-out: MIC.

Molecules are shown by their SMILES. Values after ≈ are worked out from the molar mass of the structure shown. Where two headings read alike, the source gives them in different places.

As for `CC[C@H]1OC(=O)[C@H](C)[C@@H](OC(=O)NCCCCCCCCc2ccc3c(=O)c(C(=O)O)cn(C)c3c2)[C@H](C)[C@@H](O[C@@H]2O[C@H](C)C[C@H](N(C)C)[C@H]2O)[C@](C)(O)C[C@@H](C)CN(C)[C@H](C)[C@@H](O)[C@]1(C)O` [107g], the MIC came to 128 µg/mL (≈ 135 µM) against S. pneumoniae (setting [2]); 4 µg/mL (≈ 4.22 µM) with S. pneumoniae (S. pneumoniae 07P390, c-ermB); 0.25 µg/mL (≈ 0.264 µM) in the data set on S. pneumoniae (S. pneumoniae ATCC49619, Ery-S); 1 µg/mL (≈ 1.06 µM) against M. catarrhalis; 8 µg/mL (≈ 8.45 µM) against H. influenzae (H. influenzae ATCC49247, Azi-S); 8 µg/mL (≈ 8.45 µM) against S. pyogenes (S. pyogenes 12-206, c-ermTR).

With `CC[C@H]1OC(=O)[C@H](C)[C@@H](OC(=O)NCCCCCCCC#Cc2ccc3c(=O)c(C(=O)O)cn(C)c3c2)[C@H](C)[C@@H](O[C@@H]2O[C@H](C)C[C@H](N(C)C)[C@H]2O)[C@](C)(OC)C[C@@H](C)C(=O)[C@H](C)[C@H]2NC(=O)O[C@@]21C` [89g], the MIC in the data set with S. pneumoniae (setting [3]) is at most 0.008 µg/mL; in the data set with S. pneumoniae (setting [4]) it was 16 µg/mL (≈ 16.3 µM); in the data set on S. pneumoniae (setting [5]), 0.25 µg/mL (≈ 0.255 µM); in the data set on M. catarrhalis (setting [6]) it was 1 µg/mL (≈ 1.02 µM); in the data set on H. influenzae (setting [7]) it was 8 µg/mL (≈ 8.15 µM); in the data set on S. pyogenes (setting [8]), 1 µg/mL (≈ 1.02 µM).

For orientation: Cmax means the highest concentration seen after dosing. The term MRT denotes the average time that molecules of a dose stay in the body. What is called Tmax is the time from dosing to the highest level. One may read the half-life as how long it takes for the measured level to halve. By AUC(0-inf) is commonly meant total exposure, with the tail of the curve extrapolated. What is called clearance is a measure of how efficiently the substance is removed, as volume per time. A high value points to a high capacity for elimination. For the molecule `CCOC(=O)c1cn(C)c2cc(C#CCCCCCCNC(=O)O[C@H]3[C@H](C)[C@@H](O[C@@H]4O[C@H](C)C[C@H](N(C)C)[C@H]4O)[C@](C)(OC)C[C@@H](C)C(=O)[C@H](C)[C@H]4NC(=O)O[C@]4(C)[C@@H](CC)OC(=O)[C@@H]3C)ccc2c1=O` [88h], the MIC is at most 0.008 µg/mL in the data set on S. pneumoniae (setting [3]); 64 µg/mL (≈ 64.3 µM) in the data set on S. pneumoniae (setting [4]); 0.5 µg/mL (≈ 0.502 µM) in the data set with S. pneumoniae (setting [5]); 4 µg/mL (≈ 4.02 µM) in the data set on M. catarrhalis (setting [6]); 32 µg/mL (≈ 32.2 µM) with H. influenzae (setting [7]); 2 µg/mL (≈ 2.01 µM) in the data set on S. pyogenes (setting [8]). The same molecule had a Cmax in data set [1] (male SD rats, i.v. 5 mg/kg) of 2650 ± 250 ng/mL. In addition, in data set [1] (male SD rats, i.v. 5 mg/kg), the MRT was 1.64 ± 0.665 h. Moreover, the Tmax in data set [1] (male SD rats, i.v. 5 mg/kg) was determined as 4.8 min. The half-life in data set [1] (male SD rats, i.v. 5 mg/kg) was 2.63 ± 1.3 h. The same molecule registered an AUC(0-inf) in data set [1] (male SD rats, i.v. 5 mg/kg, mean ± SD, n 3) of 1790 ± 90 ng·h/mL. Further, in data set [1] (male SD rats, i.v. 5 mg/kg, read-out: AUC0-24), the AUC(0-t) amounted to 1760 ± 100 ng·h/mL. In data set [1] (male, 5 mg/kg), this molecule showed a clearance of 46.5 mL/min/kg.

As for `CC[C@H]1OC(=O)[C@H](C)[C@@H](OC(=O)NCCCCOCCC#Cc2ccc3c(=O)c(C(=O)O)cn(C)c3c2)[C@H](C)[C@@H](O[C@@H]2O[C@H](C)C[C@H](N(C)C)[C@H]2O)[C@](C)(OC)C[C@@H](C)C(=O)[C@H](C)[C@H]2NC(=O)O[C@@]21C` [96g], the MIC in the data set on S. pneumoniae (setting [3]) is at most 0.008 µg/mL; in the data set on S. pneumoniae (setting [4]), 8 µg/mL (≈ 8.14 µM); with S. pneumoniae (setting [5]) it was 0.25 µg/mL (≈ 0.254 µM); in the data set on M. catarrhalis (setting [6]), 0.5 µg/mL (≈ 0.509 µM); with H. influenzae (setting [7]) it was 2 µg/mL (≈ 2.03 µM); with S. pyogenes (setting [8]), 0.5 µg/mL (≈ 0.509 µM).

Consider `CC[C@H]1OC(=O)[C@H](C)[C@@H](OC(=O)NCCCCCCCCc2ccc3c(=O)c(C(=O)O)cn(C)c3c2)[C@H](C)[C@@H](O[C@@H]2O[C@H](C)C[C@H](N(C)C)[C@H]2O)[C@](C)(OC)C[C@@H](C)C(=O)[C@H](C)[C@H]2NC(=O)O[C@@]21C` [90g], for which the MIC in the data set on S. pneumoniae (setting [2]) is 8 µg/mL (≈ 8.24 µM); in the data set on S. pneumoniae (S. pneumoniae 07P390, c-ermB), 0.03 µg/mL (≈ 0.0309 µM); in the data set with S. pneumoniae (S. pneumoniae ATCC49619, Ery-S) it was at most 0.008 µg/mL; in the data set on M. catarrhalis it was 2 µg/mL (≈ 2.06 µM); with H. influenzae (H. influenzae ATCC49247, Azi-S) it was 4 µg/mL (≈ 4.12 µM); against S. pyogenes (S. pyogenes 12-206, c-ermTR), 0.12 µg/mL (≈ 0.124 µM).

Take `CC[C@H]1OC(=O)[C@H](C)[C@@H](O[C@H]2C[C@@](C)(OC)[C@@H](O)[C@H](C)O2)[C@H](C)[C@@H](O[C@@H]2O[C@H](C)C[C@H](N(C)C)[C@H]2O)[C@](C)(OC)C[C@@H](C)C(=O)[C@H](C)[C@@H](O)[C@]1(C)O` [clarithromycin, reference compound]: the MIC in the data set on S. aureus (S. aureus 15B196, c-ermB) was 512 µg/mL (≈ 685 µM); in the data set with S. aureus (S. aureus ATCC29213) it was 0.25 µg/mL (≈ 0.334 µM); against S. aureus (S. aureus PU32, Clinical, MRSA, i-ermA), 16 µg/mL (≈ 21.4 µM); in the data set on S. pneumoniae (S. pneumoniae 07P390, c-ermB), 512 µg/mL (≈ 685 µM); in the data set with S. pneumoniae (S. pneumoniae 21C315, Clinical, c-ermB), above 64 µg/mL; against S. pneumoniae (S. pneumoniae 21D016, Clinical, c-ermB, mef), above 64 µg/mL. Also, the MIC against S. pneumoniae (S. pneumoniae 21D020, Clinical, c-ermB, mef) is above 64 µg/mL; with S. pneumoniae (S. pneumoniae 21M277, Clinical, c-ermB) it was above 64 µg/mL; with S. pneumoniae (S. pneumoniae 21Q352, Clinical, i-MLSB), 16 µg/mL (≈ 21.4 µM); against S. pneumoniae (S. pneumoniae 21Q353, Clinical, i-MLSB), 8 µg/mL (≈ 10.7 µM); in the data set with S. pneumoniae (S. pneumoniae 21W257, Clinical, c-ermB, mef) it was above 64 µg/mL; in the data set with S. pneumoniae (S. pneumoniae 21X435, Clinical), 0.12 µg/mL (≈ 0.16 µM). For the same molecule, the MIC against S. pneumoniae (S. pneumoniae ATCC49619) was 0.12 µg/mL (≈ 0.16 µM); with S. pneumoniae (Streptococcus pneumoniae, S. pneumoniae PU09, mef, read-out: MIC), 8 µg/mL (≈ 10.7 µM); in the data set with M. catarrhalis (setting [6]), 0.25 µg/mL (≈ 0.334 µM); in the data set on H. influenzae (setting [7]) it was 16 µg/mL (≈ 21.4 µM); with S. pyogenes (S. pyogenes 12-206, c-ermTR) it was 512 µg/mL (≈ 685 µM); against S. pyogenes (S. pyogenes 21C303, Clinical, c-ermB), above 64 µg/mL. The MIC in the data set on S. pyogenes (S. pyogenes 21D184, Clinical, c-ermB) is above 64 µg/mL; in the data set with S. pyogenes (S. pyogenes 21D199, Clinical, c-ermB), above 64 µg/mL; in the data set with S. pyogenes (S. pyogenes 21D200, Clinical, c-ermB), above 64 µg/mL; against S. pyogenes (S. pyogenes 21K003, Clinical, mef), 2 µg/mL (≈ 2.67 µM); in the data set on S. pyogenes (S. pyogenes 21M063, Clinical, c-ermB), above 64 µg/mL; against S. pyogenes (S. pyogenes 21W186, Clinical, c-ermTR) it was above 64 µg/mL. Moreover, the MIC with S. pyogenes (Streptococcus pyogenes, S. pyogenes 01-968, i-ermTR (Table S5), read-out: MIC) amounted to 4 µg/mL (≈ 5.35 µM).
